The values that follow come from patent US9999619B2, “Piperidin-4-yl azetidine derivatives as JAK1 inhibitors” (Incyte Corporation, priority 2010, dated 2018).

What all share (assay type): biochemical
For test [1], the target named is Jak2 (a.a. 828-1132) (Homo sapiens (Human), UniProt O60674). The test is described as follows: In vitro JAK kinase assay (HTRF, phosphorylation of a biotinylated peptide), JAK2. The conditions noted are these: measured at 1 mM ATP. In short, it runs like this: (§1)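 Phosphorylation of a biotinylated peptide by purified His-tagged JAK catalytic domains (insect-cell baculovirus expression) ran 1 hr at room temperature. After stopping with EDTA, Eu-Py20 and SA-APC were bound for 40 minutes and HTRF measured.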
For orientation: Time-resolved FRET reads energy transfer from a long-lived donor to a nearby acceptor.

The target of test [2] is human JAK1 (a.a. 837-1142) (Homo sapiens, UniProt P23458). In words: In vitro JAK kinase assay (HTRF, phosphorylation of a biotinylated peptide), JAK1. The conditions noted are these: measured at 1 mM ATP. In short, it runs like this:
as §1

Test [3] has as its target human JAK1 (a.a. 837-1142). The test is described as above. The conditions noted are these: ratio of JAK2 IC50 to JAK1 IC50, measured at 1 mM ATP. In short, it runs like this:
as §1

Chain of Jak2 (a.a. 828-1132) (O60674 828-1132): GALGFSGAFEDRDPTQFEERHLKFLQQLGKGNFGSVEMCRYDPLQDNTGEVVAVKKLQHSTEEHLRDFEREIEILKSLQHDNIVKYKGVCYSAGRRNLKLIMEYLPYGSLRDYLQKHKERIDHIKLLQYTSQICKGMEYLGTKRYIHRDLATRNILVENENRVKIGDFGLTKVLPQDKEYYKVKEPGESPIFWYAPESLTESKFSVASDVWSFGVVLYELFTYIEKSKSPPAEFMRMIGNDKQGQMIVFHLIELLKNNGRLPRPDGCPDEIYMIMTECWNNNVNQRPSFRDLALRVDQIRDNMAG

As to `N#CCC1(n2cc(-c3ncnc4[nH]ccc34)cn2)CN(C2CCN(C(=O)c3cc(Cl)cc(Cl)c3)CC2)C1` [Example 24, {1-[1-(3,5-dichlorobenzoyl)piperidin-4-yl]-3-[4-(7H-pyrrolo[2,3-d]pyrimidin-4-yl)-1H-pyrazol-1-yl]azetidin-3-yl}acetonitrile], the IC50 in test [1] is at most 10 nM; in test [2], at most 5 nM. For the same compound, the “IC50 Ratio JAK2/JAK1” value in test [3] came out at 6.6.
Consider `N#CCC1(n2cc(-c3ncnc4[nH]ccc34)cn2)CN(C2CCN(C(=O)c3ccsc3Br)CC2)C1` [Example 75, {1-{1-[(2-bromo-3-thienyl)carbonyl]piperidin-4-yl}-3-[4-(7H-pyrrolo[2,3-d]pyrimidin-4-yl)-1H-pyrazol-1-yl]azetidin-3-yl}acetonitrile], for which the results for the IC50 in test [1] and in test [2] were at most 10 nM and at most 5 nM, respectively. For the same compound, the “IC50 Ratio JAK2/JAK1” value in test [3] turned out to be 3.4.
Consider `Cc1cc(NC(=O)N2CCC(N3CC(CC#N)(n4cc(-c5ncnc6[nH]ccc56)cn4)C3)CC2)n(C)n1` [Example 197, 4-{3-(cyanomethyl)-3-[4-(7H-pyrrolo[2,3-d]pyrimidin-4-yl)-1H-pyrazol-1-yl]azetidin-1-yl}-N-(1,3-dimethyl-1H-pyrazol-5-yl)piperidine-1-carboxamide], for which the IC50 fell in the range of 10 to 50 nM in test [1] and 5 to 20 nM in test [2]. Also, in test [3], the “IC50 Ratio JAK2/JAK1” value is given as 3.2.
For `COCCN(C)Cc1cc(C(=O)N2CCC(N3CC(CC#N)(n4cc(-c5ncnc6[nH]ccc56)cn4)C3)CC2)nc(C(F)(F)F)n1` [Example 384, {1-(1-{[6-{[(2-methoxyethyl)(methyl)amino]methyl}-2-(trifluoromethyl)pyrimidin-4-yl]carbonyl}piperidin-4-yl)-3-[4-(7H-pyrrolo[2,3-d]pyrimidin-4-yl)-1H-pyrazol-1-yl]azetidin-3-yl}acetonitrile] the same measures were 50 to 100 nM, at most 5 nM and 29.6.
For the compound `N#CCC1(n2cc(-c3ncnc4[nH]ccc34)cn2)CN(C2CCN(C(=O)c3ccc(-c4ccc(C#N)cc4)cc3)CC2)C1` [Example 126, 4′-[(4-{3-(cyanomethyl)-3-[4-(7H-pyrrolo[2,3-d]pyrimidin-4-yl)-1H-pyrazol-1-yl]azetidin-1-yl}piperidin-1-yl)carbonyl]biphenyl-4-carbonitrile], the IC50 was 10 to 50 nM in test [1] and at most 5 nM in test [2]. Also, the “IC50 Ratio JAK2/JAK1” value in test [3] came out at 6.3.
As to `CC(C)NC(=O)N1CCC(N2CC(CC#N)(n3cc(-c4ncnc5[nH]ccc45)cn3)C2)CC1` [Example 367, 4-{3-(cyanomethyl)-3-[4-(7H-pyrrolo[2,3-d]pyrimidin-4-yl)-1H-pyrazol-1-yl]azetidin-1-yl}-N-isopropylpiperidine-1-carboxamide], the IC50 was 10 to 50 nM in test [1] and at most 5 nM in test [2]. For the same compound, the “IC50 Ratio JAK2/JAK1” value in test [3] was 33.8.
On to `N#CCC1(n2cc(-c3ncnc4[nH]ccc34)cn2)CN(C2CCN(C(=O)Nc3cccc(C(F)(F)F)c3F)CC2)C1` [Example 170, 4-{3-(cyanomethyl)-3-[4-(7H-pyrrolo[2,3-d]pyrimidin-4-yl)-1H-pyrazol-1-yl]azetidin-1-yl}-N-[2-fluoro-3-(trifluoromethyl)phenyl]piperidine-1-carboxamide], for which the values for the IC50 in test [1] and in test [2] were 10 to 50 nM and at most 5 nM, respectively. Moreover, the “IC50 Ratio JAK2/JAK1” value in test [3] is 6.9.
For `COc1ccc(CN2CCC(N3CC(CC#N)(n4cc(-c5ncnc6[nH]ccc56)cn4)C3)CC2)c(Cl)c1OC` [Example 239, {1-[1-(2-chloro-3,4-dimethoxybenzyl)piperidin-4-yl]-3-[4-(7H-pyrrolo[2,3-d]pyrimidin-4-yl)-1H-pyrazol-1-yl]azetidin-3-yl}acetonitrile] the same measures were 10 to 50 nM, 5 to 20 nM and 2.3.
For `N#CCC1(n2cc(-c3ncnc4[nH]ccc34)cn2)CN(C2CCN(C(=O)c3sc(C(F)(F)F)cc3O)CC2)C1` [Example 71, {1-{1-[3-hydroxy-5-(trifluoromethyl)-2-thienylcarbonyl]piperidin-4-yl}-3-[4-(7H-pyrrolo[2,3-d]pyrimidin-4-yl)-1H-pyrazol-1-yl]azetidin-3-yl}acetonitrile], the IC50 in test [1] was 50 to 100 nM; in test [2] it was 20 to 30 nM. In test [3], the “IC50 Ratio JAK2/JAK1” value was determined as 4.4.
For `N#CCC1(n2cc(-c3ncnc4[nH]ccc34)cn2)CN(C2CCN(C(=O)c3c(F)ccc(F)c3F)CC2)C1` [Example 47, {3-[4-(7H-pyrrolo[2,3-d]pyrimidin-4-yl)-1H-pyrazol-1-yl]-1-[1-(2,3,6-trifluorobenzoyl)piperidin-4-yl]azetidin-3-yl}acetonitrile], the values for the IC50 in test [1] and in test [2] were at most 10 nM and at most 5 nM, respectively. In addition, the “IC50 Ratio JAK2/JAK1” value in test [3] stood at 3.7.
`COc1cc(F)ccc1C(=O)N1CCC(N2CC(CC#N)(n3cc(-c4ncnc5[nH]ccc45)cn3)C2)CC1` [Example 40, {1-[1-(4-fluoro-2-methoxybenzoyl)piperidin-4-yl]-3-[4-(7H-pyrrolo[2,3-d]pyrimidin-4-yl)-1H-pyrazol-1-yl]azetidin-3-yl}acetonitrile]: the IC50 was at most 10 nM in test [1] and at most 5 nM in test [2]. The “IC50 Ratio JAK2/JAK1” value in test [3] is given as 4.8.
Consider `COc1ccccc1NC(=O)N1CCC(N2CC(CC#N)(n3ccc(-c4ncnc5[nH]ccc45)c3)C2)CC1` [Example 288, 4-{3-(cyanomethyl)-3-[3-(7H-pyrrolo[2,3-d]pyrimidin-4-yl)-1H-pyrrol-1-yl]azetidin-1-yl}-N-(2-methoxyphenyl)piperidine-1-carboxamide], for which the IC50 is at most 10 nM in test [1] and at most 5 nM in test [2]. In addition, in test [3], the “IC50 Ratio JAK2/JAK1” value worked out at 9.0.
For the compound `CS(=O)(=O)N1CCC(N2CC(CC#N)(n3cc(-c4c(C#N)cnc5[nH]ccc45)cn3)C2)CC1` [Example 357, 4-(1-{3-(Cyanomethyl)-1-[1-(methylsulfonyl)piperidin-4-yl]azetidin-3-yl}-1H-pyrazol-4-yl)-1H-pyrrolo[2,3-b]pyridine-5-carbonitrile], the values for the IC50 in test [1] and in test [2] were 10 to 50 nM and at most 5 nM, respectively. Also, in test [3], the “IC50 Ratio JAK2/JAK1” value came to 3.8.
Turning to `N#CCC1(n2cc(-c3ncnc4[nH]ccc34)cn2)CN(C2CC3CCC(C2)N3C(=O)c2ccc(C(F)(F)F)nc2)C1` (stereo not drawn) [Example 143, [3-[4-(7H-pyrrolo[2,3-d]pyrimidin-4-yl)-1H-pyrazol-1-yl]-1-(8-{[6-(trifluoromethyl)pyridin-3-yl]carbonyl}-8-azabicyclo[3.2.1]oct-3-yl)azetidin-3-yl]acetonitrile], the values for the IC50 in test [1] and in test [2] were 10 to 50 nM and 5 to 20 nM, respectively. Further, the “IC50 Ratio JAK2/JAK1” value in test [3] is listed as 3.5.
With `N#CCC1(n2cc(-c3ncnc4[nH]ccc34)cn2)CN(C2CCN(C(=O)C3CCc4ccccc4C3)CC2)C1` (stereo not drawn) [Example 97, {3-[4-(7H-pyrrolo[2,3-d]pyrimidin-4-yl)-1H-pyrazol-1-yl]-1-[1-(1,2,3,4-tetrahydronaphthalen-2-ylcarbonyl)piperidin-4-yl]azetidin-3-yl}acetonitrile], the half-maximal inhibitory concentration (IC50) lay within 10 to 50 nM in test [1] and 5 to 20 nM in test [2]. Also, the “IC50 Ratio JAK2/JAK1” value in test [3] turned out to be 2.2.

A word on the IC50: it is the midpoint of a concentration-inhibition curve. Low readings indicate higher potency, high ones lower potency.
